Measured values from ChEMBL document CHEMBL4818987, “Recent advances of podophyllotoxin/epipodophyllotoxin hybrids in anticancer activity, mode of action, and structure-activity relationship: An update (2010-2020)” (Eur J Med Chem, 2020).

What was measured:
[1] = tested on: HCT-116; test: Antiproliferative activity against human HCT116 cells incubated for 3 days by MTT assay; type: functional, cell-based; conditions: HCT-116, 72 h
[2] = tested on: A549; test: Antiproliferative activity against human A549 cells incubated for 3 days by MTT assay; type: functional, cell-based; conditions: A549, 72 h
[3] = tested on: HepG2; test: Antiproliferative activity against human HepG2 cells incubated for 3 days by MTT assay; type: functional, cell-based; conditions: HepG2, 72 h
[4] = tested on: HeLa; test: Antiproliferative activity against human HeLa cells incubated for 48 hrs by MTT assay; type: functional, cell-based
[5] = tested on: MCF7; test: Antiproliferative activity against human MCF7 cells incubated for 48 hrs by MTT assay; type: functional, cell-based; conditions: MCF7, 48 h
[6] = tested on: A549; test: Antiproliferative activity against human A549 cells incubated for 48 hrs by MTT assay; type: functional, cell-based; conditions: A549, 48 h
[7] = tested on: HepG2; test: Antiproliferative activity against human HepG2 cells incubated for 48 hrs by MTT assay; type: functional, cell-based; conditions: HepG2, 48 h
[8] = Resistance index, ratio of IC50 for human K562/ADR cells to IC50 for human K562 cells; type: functional
[9] = tested on: K562; test: Cytotoxicity against human K562 cells incubated for 72 hrs by CCK8 assay; type: functional, cell-based; conditions: K562, 72 h
[10] = tested on: K562/Adr; test: Cytotoxicity against human K562/ADR cells incubated for 72 hrs by CCK8 assay; type: functional, cell-based
[11] = tested on: A549; test: Antiproliferative activity against human A549 cells incubated for 24 hrs by MTT assay; type: functional, cell-based; conditions: A549, 24 h
[12] = tested on: HeLa; test: Antiproliferative activity against human HeLa cells incubated for 24 hrs by MTT assay; type: functional, cell-based
[13] = tested on: Calu-1; test: Antiproliferative activity against human Calu-1 cells incubated for 24 hrs by MTT assay; type: functional, cell-based; conditions: Calu-1, 24 h

SMILES	IC50 [1] [nM]	IC50 [2] [nM]	IC50 [3] [nM]	IC50 [4] [nM]	IC50 [5] [nM]	IC50 [6] [nM]	IC50 [7] [nM]	further results
COc1cc([C@@H]2c3cc4c(cc3[C@@H](NC(=S)NC(=O)c3ccc(Cl)cc3)[C@H]3COC(=O)[C@H]23)OCO4)cc(OC)c1OC	100	100	100	–	–	–	–	–
COc1cc([C@@H]2c3cc4c(cc3[C@@H](NC(=S)NC(=O)c3ccc(F)cc3)[C@H]3COC(=O)[C@H]23)OCO4)cc(OC)c1OC	100	100	100	–	–	–	–	–
COc1cc([C@@H]2c3cc4c(cc3[C@@H](NC(=S)NC(=O)c3ccccc3Br)[C@H]3COC(=O)[C@H]23)OCO4)cc(OC)c1OC	100	100	100	–	–	–	–	–
COc1cc([C@@H]2c3cc4c(cc3[C@@H](NC(=S)NC(=O)c3cccc5ccccc35)[C@H]3COC(=O)[C@H]23)OCO4)cc(OC)c1OC	100	100	100	–	–	–	–	–
CCC[C@H]1O[C@H](O[C@@H]2c3cc4c(cc3[C@@H](c3cc(OC)c(O)c(OC)c3)[C@H]3C(=O)OC[C@@H]32)OCO4)CC[C@H]1O	–	–	–	41.6	41.6	41.6	41.6	–
COc1cc([C@@H]2c3cc4c(cc3[C@H](OC(=O)/C=C/c3ccc(F)cc3)[C@H]3COC(=O)[C@H]23)OCO4)cc(OC)c1OC	–	–	–	–	–	–	–	Ratio IC50 [8]: 1.1; IC50 [9]: 11 nM; IC50 [10]: 11 nM
COc1ccc(C2SCCC(CCCCC(=O)O[C@H]3c4cc5c(cc4[C@@H](c4cc(OC)c(OC)c(OC)c4)[C@H]4C(=O)OC[C@@H]43)OCO5)S2)cc1O (stereo partly drawn)	–	–	–	–	–	–	–	IC50 [11]: 2680 nM; IC50 [12]: 2680 nM; IC50 [13]: 2680 nM
COc1ccc(C2SCCC(CCCCC(=O)O[C@H]3c4cc5c(cc4[C@@H](c4cc(OC)c(OC)c(OC)c4)[C@H]4C(=O)OC[C@@H]43)OCO5)S2)cc1OC (stereo partly drawn)	–	–	–	–	–	–	–	IC50 [11]: 2680 nM; IC50 [12]: 2680 nM; IC50 [13]: 2680 nM
CCC[C@@H]1O[C@H](O[C@H]2c3cc4c(cc3[C@@H](c3cc(OC)c(OC)c(OC)c3)[C@H]3C(=O)OC[C@@H]32)OCO4)CC[C@H]1O	–	–	–	41.6	41.6	41.6	41.6	–
COc1cc([C@@H]2c3cc4c(cc3[C@H](OC(=O)/C=C/c3ccc(C)cc3)[C@H]3COC(=O)[C@H]23)OCO4)cc(OC)c1OC	–	–	–	–	–	–	–	Ratio IC50 [8]: 1.1; IC50 [9]: 11 nM; IC50 [10]: 11 nM
COc1cc([C@@H]2c3cc4c(cc3[C@H](OC(=O)CCCCC3CCSC(c5ccc(Cl)cc5)S3)[C@H]3COC(=O)[C@H]23)OCO4)cc(OC)c1OC (stereo partly drawn)	–	–	–	–	–	–	–	IC50 [11]: 2680 nM; IC50 [12]: 2680 nM; IC50 [13]: 2680 nM
CC[C@H]1O[C@@H](O[C@@H]2c3cc4c(cc3[C@@H](c3cc(OC)c(O)c(OC)c3)[C@H]3C(=O)OC[C@@H]32)OCO4)CC[C@H]1O	–	–	–	41.6	41.6	41.6	41.6	–
COc1cc([C@@H]2c3cc4c(cc3[C@@H](O[C@H]3CC[C@@H](O)[C@@H](C(C)C)O3)[C@H]3COC(=O)[C@H]23)OCO4)cc(OC)c1O	–	–	–	41.6	41.6	41.6	41.6	–
COc1cc([C@@H]2c3cc4c(cc3[C@H](OC(=O)CCCCC3CCSC(c5ccccc5)S3)[C@H]3COC(=O)[C@H]23)OCO4)cc(OC)c1OC (stereo partly drawn)	–	–	–	–	–	–	–	IC50 [11]: 2680 nM; IC50 [12]: 2680 nM; IC50 [13]: 2680 nM
COc1cc([C@@H]2c3cc4c(cc3[C@@H](NC(=S)NC(=O)c3cccc(C)c3)[C@H]3COC(=O)[C@H]23)OCO4)cc(OC)c1OC	100	100	100	–	–	–	–	–
COc1cc([C@@H]2c3cc4c(cc3[C@@H](NC(=S)NC(=O)c3cccc(Cl)c3)[C@H]3COC(=O)[C@H]23)OCO4)cc(OC)c1OC	100	100	100	–	–	–	–	–
COc1cc([C@@H]2c3cc4c(cc3[C@@H](NC(=S)NC(=O)c3ccccc3C)[C@H]3COC(=O)[C@H]23)OCO4)cc(OC)c1OC	100	100	100	–	–	–	–	–
COc1cc([C@@H]2c3cc4c(cc3[C@@H](O[C@@H]3CC[C@@H](O)[C@@H](C)O3)[C@H]3COC(=O)[C@H]23)OCO4)cc(OC)c1O	–	–	–	41.6	41.6	41.6	41.6	–
COc1cc([C@@H]2c3cc4c(cc3[C@H](O[C@H]3CC[C@@H](O)[C@H](C(C)C)O3)[C@H]3COC(=O)[C@H]23)OCO4)cc(OC)c1OC	–	–	–	41.6	41.6	41.6	41.6	–
